Patent US20150291565A1, “INDOLE COMPOUNDS AND THEIR USE AS ANTIMICROBIALS” (Memorial Sloan-Kettering Cancer Center, priority 2012, published 2015)
Converted amounts (≈) assume the structure as drawn. Where two headings read alike, the source gives them in different places.

Experiments:
[1] = test system: S. aureus ATCC 33591 (MRSA); experiment: Broth dilution MIC, S. aureus ATCC 33591; format: cell-based; settings: for MIC: Staphylococcus aureus
[2] = test system: S. pneumoniae ATCC 700674 (PRSP); experiment: Broth dilution MIC, S. pneumoniae ATCC 700674; format: cell-based; settings: Streptococcus pneumoniae
C. albicans ATCC 14053 = experiment: Broth dilution MIC, C. albicans ATCC 14053; format: cell-based; settings: Candida albicans, ATCC14053; Table 1; range 64 down to 0.12 μg/ml
Description: In vitro Anti-bacterial & Anti-fungal Activity Assay: All test compounds were prepared as 6.4 mg/ml stock solutions in DMSO and further diluted according to the NCCLS M7-A6 (Page 5) document with sterile water or appropriate diluent. A working stock of 256 μg/ml was used to do 1:2 serial dilutions in 96-well plates. […] The inoculums were prepared by making a direct sterile water suspension of isolated colonies from 18 to 24 hr agar plates for all organisms (Mueller Hinton, Blood Agar or SDA plates). Each bacterial suspension was adjusted to read between 0.09 and 0.11 absorbance at 620 nm. […] These were further diluted 1/100 in appropriate broth for inoculating the 96-well plates. The C. albicans suspension was adjusted to read between 70 and 75% Transmittance at 530 nm and then diluted 1/500 in RPMI+MOPS broth. All aerobic bacterial and fungal plates were incubated for 18 hrs. at 35° C. […] Plates were read using a Beckman Automated Plate Reader at 650 nm. Readings were confirmed by visual examination of plates. (See Table 1, Table 2, Table 3, and Table 4). […] It is important to note that positive results against C. albicans are often indicative of broad spectrum antifungal activity, while negative results are not necessarily conclusory of a lack of activity against other fungus.

E. coli ATCC 25922 = experiment: Broth dilution MIC, E. coli ATCC 25922; format: cell-based; settings: Escherichia coli
K. pneumoniae ATCC 51503 = experiment: Broth dilution MIC, K. pneumoniae ATCC 51503; format: cell-based; settings: Klebsiella pneumoniae
S. aureus BAA-39 (MDR) = experiment: Broth dilution MIC, S. aureus BAA-39; format: cell-based; settings: for MIC: Staphylococcus aureus, BAA39
[3] = test system: E. faecalis ATCC 29212 (VRE); experiment: Broth dilution MIC, E. faecalis ATCC 29212; format: cell-based
[4] = test system: S. pneumoniae ATCC 6301 (PSSP); experiment: Broth dilution MIC, S. pneumoniae ATCC 6301; format: cell-based; settings: Streptococcus pneumoniae
E. coli ECM 1694 = experiment: Broth dilution MIC, E. coli ECM 1694; format: cell-based; settings: Escherichia coli
E. faecium CT-26 = experiment: Broth dilution MIC, E. faecium CT-26; format: cell-based; settings: Enterococcus faecium
M. smegmatis (mc2155) = experiment: Disk diffusion assay, zone of inhibition, M. smegmatis; format: cell-based; settings: disk diffusion zone of inhibition
[5] = test system: S. aureus ATCC 29213 (MSSA); experiment: Broth dilution MIC, S. aureus ATCC 29213; format: cell-based; settings: Staphylococcus aureus
K. pneumoniae ATCC 13883 = experiment: Broth dilution MIC, K. pneumoniae ATCC 13883; format: cell-based; settings: Klebsiella pneumoniae
P. aeruginosa ATCC 9027 = experiment: Broth dilution MIC, P. aeruginosa ATCC 9027; format: cell-based; settings: Pseudomonas aeruginosa
[6] = test system: E. faecium ATCC 700221 (VRE); experiment: Broth dilution MIC, E. faecium ATCC 700221; format: cell-based
MRSA = experiment: Disk diffusion assay, zone of inhibition, MRSA; format: cell-based, Staphylococcus aureus; settings: disk diffusion zone of inhibition
[7] = Table 1, range 64 down to 0.12 μg/ml, read-out: MIC S. aureus ATCC 33591
[8] = Table 2, broth dilution MIC in ug/ml, read-out: MIC S aureus ATCC 33591 MRSA
[9] = Table 1, range 64 down to 0.12 μg/ml, read-out: MIC S. pneumoniae ATCC 700674
[10] = Table 2, broth dilution MIC in ug/ml, read-out: MIC S pneumonia ATCC 700674 PRSP
[11] = ATCC 25921 / ATCC 25922, Table 2, broth dilution MIC in ug/ml, read-out: MIC E. coli ATCC 25921
[12] = ATCC25922, Table 1, range 64 down to 0.12 μg/ml, read-out: MIC E. coli ATCC 25922
[13] = ATCC51503, Table 1, range 64 down to 0.12 μg/ml, read-out: MIC K. pneumoniae ATCC 51503
[14] = ATCC51503, Table 2, broth dilution MIC in ug/ml, read-out: MIC K pneumonia ATCC 51503
[15] = Table 1, range 64 down to 0.12 μg/ml, read-out: MIC S. aureus BAA-39
[16] = Table 2, broth dilution MIC in ug/ml, read-out: MIC S aureus BAA-39 MDR
[17] = Table 2, broth dilution MIC in ug/ml, read-out: MIC E faecalis ATCC 29212 VRE
[18] = ATCC6301, Table 1, range 64 down to 0.12 μg/ml, read-out: MIC S. pneumoniae ATCC 6301
[19] = ATCC6301, Table 2, broth dilution MIC in ug/ml, read-out: MIC S pneumonia ATCC 6301 PSSP
[20] = ECM1694, Table 1, range 64 down to 0.12 μg/ml, read-out: MIC E. coli ECM 1694
[21] = ECM1694, Table 2, broth dilution MIC in ug/ml, read-out: MIC E. coli ECM 1693
[22] = CT26, Table 1, range 64 down to 0.12 μg/ml, read-out: MIC E. faecium CT-26
[23] = CT26, Table 2, broth dilution MIC in ug/ml, read-out: MIC E faecium CT-25
[24] = Table 1, range 64 down to 0.12 μg/ml, read-out: MIC S. aureus ATCC 29213
[25] = Table 2, broth dilution MIC in ug/ml, read-out: MIC S aureus ATCC 29213 MSSA
[26] = ATCC13883, Table 1, range 64 down to 0.12 μg/ml, read-out: MIC K. pneumoniae ATCC 13883
[27] = ATCC13883, Table 2, broth dilution MIC in ug/ml, read-out: MIC K pneumonia ATCC 13883
[28] = ATCC 9026 / ATCC 9027, Table 2, broth dilution MIC in ug/ml, read-out: MIC P aeruginosa ATCC 9026
[29] = ATCC9027, Table 1, range 64 down to 0.12 μg/ml, read-out: MIC P. aeruginosa ATCC 9027
[30] = Enterococcus faecium, Table 1, range 64 down to 0.12 μg/ml, read-out: MIC E. faecium ATCC 700221
[31] = Table 2, broth dilution MIC in ug/ml, read-out: MIC E faecium ATCC 700221 VRE
[32] = Enterococcus faecalis, Table 1, range 64 down to 0.12 μg/ml, read-out: MIC E. faecalis ATCC 29212

Row | Structure (SMILES) | MIC [1, 7] | MIC [1, 8] | MIC [2, 9] | MIC [2, 10] | MIC (C. albicans ATCC 14053) | MIC (E. coli ATCC 25922; [11]) | MIC (E. coli ATCC 25922; [12]) | MIC (K. pneumoniae ATCC 51503; [13]) | MIC (K. pneumoniae ATCC 51503; [14]) | MIC (S. aureus BAA-39 (MDR); [15]) | MIC (S. aureus BAA-39 (MDR); [16]) | MIC [3, 17] | MIC [4, 18] | MIC [4, 19] | MIC (E. coli ECM 1694; [20]) | MIC (E. coli ECM 1694; [21]) | MIC (E. faecium CT-26; [22]) | MIC (E. faecium CT-26; [23]) | Zone Size M. smegmatis (M. smegmatis (mc2155)) | MIC [5, 24] | further results
1 | c1ccc(-c2ccc(Nc3ccc(-c4cc5ccc(C6=NCCN6)cc5[nH]4)cc3)cc2)nc1 [SKI-12] | 1 µg/mL (≈ 2.33 µM) | 1 µg/mL (≈ 2.33 µM) | ≤ 0.12 µg/mL | 0.12 µg/mL (≈ 0.279 µM) | 8 µg/mL (≈ 18.6 µM) | 4 µg/mL (≈ 9.31 µM) | 4 µg/mL (≈ 9.31 µM) | 8 µg/mL (≈ 18.6 µM) | 8 µg/mL (≈ 18.6 µM) | 1 µg/mL (≈ 2.33 µM) | 1 µg/mL (≈ 2.33 µM) | 0.25 µg/mL (≈ 0.582 µM) | ≤ 0.12 µg/mL | 0.12 µg/mL (≈ 0.279 µM) | 4 µg/mL (≈ 9.31 µM) | 4 µg/mL (≈ 9.31 µM) | ≤ 0.12 µg/mL | 0.12 µg/mL (≈ 0.279 µM) | 12 mm | 1 µg/mL (≈ 2.33 µM) | MIC S. aureus ATCC 33591 ([1]; Table 3, starting at 4 μg/ml): 1 µg/mL (≈ 2.33 µM); MIC ([2]; Table 3, starting at 4 μg/ml, read-out: MIC S. pneumoniae ATCC 700674): 0.12 µg/mL (≈ 0.279 µM); MIC S. aureus BAA-39 (S. aureus BAA-39 (MDR); Table 3, starting at 4 μg/ml): 1 µg/mL (≈ 2.33 µM); MIC ([3]; Enterococcus faecalis, Table 3, starting at 4 μg/ml, read-out: MIC E. faecalis ATCC 29212): 0.25 µg/mL (≈ 0.582 µM); MIC ([4]; ATCC6301, Table 3, starting at 4 μg/ml, read-out: MIC S. pneumoniae ATCC 6301): 0.12 µg/mL (≈ 0.279 µM); MIC (E. coli ECM 1694; ECM1694, Table 3, starting at 4 μg/ml, read-out: MIC E. coli ECM 1694): 4 µg/mL (≈ 9.31 µM); MIC (E. faecium CT-26; CT26, Table 3, starting at 4 μg/ml, read-out: MIC E. faecium CT-26): 0.12 µg/mL (≈ 0.279 µM); MIC ([5]; Table 3, starting at 4 μg/ml, read-out: MIC S. aureus ATCC 29213): 1 µg/mL (≈ 2.33 µM); MIC [5, 25]: 1 µg/mL (≈ 2.33 µM); MIC (K. pneumoniae ATCC 13883; [26]): 8 µg/mL (≈ 18.6 µM); MIC (K. pneumoniae ATCC 13883; [27]): 8 µg/mL (≈ 18.6 µM); MIC (P. aeruginosa ATCC 9027; [28]): 32 µg/mL (≈ 74.5 µM); MIC (P. aeruginosa ATCC 9027; [29]): 32 µg/mL (≈ 74.5 µM); MIC [6, 30]: ≤ 0.12 µg/mL; MIC ([6]; Enterococcus faecium, Table 3, starting at 4 μg/ml, read-out: MIC E. faecium ATCC 700221): 0.12 µg/mL (≈ 0.279 µM); MIC [6, 31]: 0.12 µg/mL (≈ 0.279 µM); Zone Size MRSA (MRSA): 10 mm
2 | c1ccc(Nc2ccc(-c3cc4ccc(C5=NCCN5)cc4[nH]3)cc2)cc1 [SKI-2] | 4 µg/mL (≈ 11.3 µM) | 4 µg/mL (≈ 11.3 µM) | 4 µg/mL (≈ 11.3 µM) | 4 µg/mL (≈ 11.3 µM) | 16 µg/mL (≈ 45.4 µM) | 16 µg/mL (≈ 45.4 µM) | 16 µg/mL (≈ 45.4 µM) | 64 µg/mL (≈ 182 µM) | 64 µg/mL (≈ 182 µM) | 4 µg/mL (≈ 11.3 µM) | 4 µg/mL (≈ 11.3 µM) | 2 µg/mL (≈ 5.67 µM) | 2 µg/mL (≈ 5.67 µM) | 2 µg/mL (≈ 5.67 µM) | 2 µg/mL (≈ 5.67 µM) | 2 µg/mL (≈ 5.67 µM) | 2 µg/mL (≈ 5.67 µM) | 2 µg/mL (≈ 5.67 µM) | 14.3 mm | 8 µg/mL (≈ 22.7 µM) | MIC [3, 32]: 2 µg/mL (≈ 5.67 µM); MIC [5, 25]: 8 µg/mL (≈ 22.7 µM); MIC (K. pneumoniae ATCC 13883; [26]): 32 µg/mL (≈ 90.8 µM); MIC (K. pneumoniae ATCC 13883; [27]): 32 µg/mL (≈ 90.8 µM); MIC (P. aeruginosa ATCC 9027; [28]): 64 µg/mL (≈ 182 µM); MIC (P. aeruginosa ATCC 9027; [29]): 64 µg/mL (≈ 182 µM); MIC [6, 30]: 2 µg/mL (≈ 5.67 µM); MIC [6, 31]: 2 µg/mL (≈ 5.67 µM); Zone Size MRSA (MRSA): 10 mm
3 | Nc1ccc(-c2ccc3cc(-c4ccc(Nc5ccc(C6=NCCN6)cc5)cc4)[nH]c3c2)cc1 [SKI-20] | > 64 µg/mL | 64 µg/mL (≈ 144 µM) | 4 µg/mL (≈ 9.02 µM) | 4 µg/mL (≈ 9.02 µM) | > 64 µg/mL | 64 µg/mL (≈ 144 µM) | > 64 µg/mL | > 64 µg/mL | 64 µg/mL (≈ 144 µM) | > 64 µg/mL | 64 µg/mL (≈ 144 µM) | 32 µg/mL (≈ 72.1 µM) | 2 µg/mL (≈ 4.51 µM) | 2 µg/mL (≈ 4.51 µM) | 64 µg/mL (≈ 144 µM) | 64 µg/mL (≈ 144 µM) | 8 µg/mL (≈ 18 µM) | 8 µg/mL (≈ 18 µM) | 8 mm | > 64 µg/mL | MIC [3, 32]: 32 µg/mL (≈ 72.1 µM); MIC [5, 25]: 64 µg/mL (≈ 144 µM); MIC (K. pneumoniae ATCC 13883; [26]): > 64 µg/mL; MIC (K. pneumoniae ATCC 13883; [27]): 64 µg/mL (≈ 144 µM); MIC (P. aeruginosa ATCC 9027; [28]): 64 µg/mL (≈ 144 µM); MIC (P. aeruginosa ATCC 9027; [29]): > 64 µg/mL; MIC [6, 30]: 16 µg/mL (≈ 36.1 µM); MIC [6, 31]: 16 µg/mL (≈ 36.1 µM); Zone Size MRSA (MRSA): 9 mm
